Test results as given in US9493487B2, “3-(1H-imidazo[4,5-C]pyridin-2-YL)-1H-pyrazolo[3,4-B]pyridine and therapeutic uses thereof” (Samumed, LLC, priority 2014, dated 2016).

Experiments:
[1] = system: Wnt activity (Sp5-Luc reporter, SW480 colon carcinoma cells); test: Sp5-Luc Wnt reporter gene assay in SW480 colon carcinoma cells; format: cell-based; conditions: Homo sapiens; SW480 cells stably expressing Sp5-Luc reporter; 42 h incubation; BrightGlo luminescence normalized to DMSO
From the text: The screening assay for Wnt activity is described as follows. Reporter cell lines can be generated by stably transducing cancer cell lines (e.g., colon cancer) or primary cells (e.g., IEC-6 intestinal cells) with a lentiviral construct that includes a Wnt-responsive promoter driving expression of the firefly luciferase gene.
SW480 colon carcinoma cells were transduced with a lentiviral vector expressing luciferase with a human Sp5 promoter consisting of a sequence of eight TCF/LEF binding sites. SW480 cells stably expressing the Sp5-Luc reporter gene and a hygromycin resistance gene were selected by treatment with 150 μg/ml of hygromycin for 7 days. These stably transduced SW480 cells were expanded in cell culture and used for all further screening activities. For Sp5-Luc reporter gene assays, the cells were plated at 10,000 cells/well in 96-well plates with growth medium containing 10% fetal calf serum and incubated overnight at 37° C. and 5% CO2. Each compound was dissolved in DMSO as a 10 mM stock in standard j-vials and used to prepare compound source plates in dose-response format with 3-fold serial dilutions and a 10 mM top concentration. Compound transfer from serially diluted source plates to assay plates containing the cells was accomplished using a pintool (Multimek 96, Beckman equipped with V&P Scientific FP1S50H pins) based liquid handling protocol. This protocol used a slotted pin to transfer 50 nl of compound from a source plate well to an assay plate well containing 50 μl of cells in growth medium. […] Control wells received 50 nl of DMSO treatment for normalization and calculating IC50 values. The treated cells were incubated at 37° C. and 5% CO2 for an additional forty-two hours. Following incubation, the growth medium was removed and 50 μl of BrightGlo luminescence reagent (Promega) was added to each well of the 96-well assay plates. The plates were placed on an orbital shaker for 5 min and then luminescence was quantified on the Victor3 (Perkin Elmer) plate reader. Readings were normalized to DMSO only treated cells, and normalized activities were utilized for IC50 calculations using the dose-response log (inhibitor) vs. response-variable slope (four parameters) nonlinear regression feature available in GraphPad Prism 5.0 or 6.0.

[2] = system: primary human fibroblasts derived from IPF patients (LL29 cells); test: Inhibition of TGF-β1-induced fibrosis (αSMA staining) in primary human fibroblasts from IPF patients; format: cell-based; conditions: Fibroblast, 96 h, TGF-β1 20 ng/mL, 4 days, 11-point dose-response 10 μM to 1.87 nM
From the text: The above synthesized compounds were screened using primary human fibroblasts (derived from IPF patients) treated with TGF-β1 to determine their ability to inhibit the fibrotic process.
Primary human fibroblasts derived from IPF patients (LL29 cells) [^1Xiaoqiu Liu, et. al., “Fibrotic Lung Fibroblasts Show Blunted Inhibition by cAMP Due to Deficient cAMP Response Element-Binding Protein Phosphorylation”, Journal of Pharmacology and Experimental Therapeutics (2005), 315(2), 678-687; ^2Watts, K. L., et. al., “RhoA signaling modulates cyclin D1 expression in human lung fibroblasts; implications for idiopathic pulmonary fibrosis”, Respiratory Research (2006), 7(1), 88] were obtained from American Type Culture Collection (ATCC) and expanded in F12 medium supplemented with 15% Fetal Bovine Serum and Penicillin/Streptomycin.
Each compound was dissolved in DMSO as a 10 mM stock and used to prepare compound source plates. Serial dilution (1:2, 11-point dose-response curves from 10 μM to 1.87 nM) and compound transfer was performed using the ECHO 550 (Labcyte, Sunnyvale, Calif.) into 384-well clear bottom assay plates (Greiner Bio-One) with appropriate DMSO backfill for a final DMSO concentration of 0.1%. LL29 cells were plated at 1,500 cells/well in 80 μl/well F12 medium supplemented with 1% Fetal Bovine Serum. One hour after addition of the cells, TGF-β1 (Peprotech; 20 ng/mL) was added to the plates to induce fibrosis (ref. 1 and 2 above). Wells treated with TGF-β1 and containing DMSO were used as controls. Cells were incubated at 37° C. and 5% CO2 for 4 days. Following incubation for 4 days, SYTOX green nucleic acid stain (Life Technologies [Thermo Fisher Scientific]) was added to the wells at a final concentration of 1 uM and incubated at room temperature for 30 min. Cells were then fixed using 4% formaldehyde (Electron Microscopy Sciences), washed 3 times with PBS followed by blocking and permeabilization using 3% Bovine Serum Albumin (BSA; Sigma) and 0.3% Triton X-100 (Sigma) in PBS. Cells were then stained with antibody specific to α-smooth muscle actin (αSMA; Abcam) (ref 1 and 2 above) in 3% Bovine Serum Albumin (BSA; Sigma) and 0.3% Triton X-100 (Sigma) in PBS, and incubated overnight at 4° C. Cells were then washed 3 times with PBS, followed by incubation with Alexa Flor-647 conjugated secondary antibody (Life Technologies [Thermo Fisher Scientific]) and DAPI at room temperature for 1 hour. Cells were then washed 3 times with PBS and plates were sealed for imaging. αSMA staining was imaged by excitation at 630 nm and emission at 665 nm and quantified using the Compartmental Analysis program on the CellInsight CX5 (Thermo Scientific). Dead or apoptotic cells were excluded from analysis based on positive SYTOX green staining. % of total cells positive for αSMA were counted in each well and normalized to the average of 11 wells treated with TGF-β1 on the same plate using Dotmatics' Studies Software. The normalized averages (fold change over untreated) of 3 replicate wells for each compound concentration were used to create dose-responses curves and EC50 values were calculated using non-linear regression curve fit in the Dotmatics' Studies Software. The EC50 values are reported.

Compound	IC50 [1]	EC50 [2]
CC(C)(C)C(=O)Nc1cncc(-c2cnc3[nH]nc(-c4nc5c(-c6ccc(F)cc6)nccc5[nH]4)c3c2)c1 [Compound 34, N-(5-(3-(4-(4-Fluorophenyl)-1H-imidazo[4,5-c]pyridin-2-yl)-1H-pyrazolo[3,4-b]pyridin-5-yl)pyridin-3-yl)pivalamide]	0.152 µM	3.06 µM
O=C(Nc1cncc(-c2cnc3[nH]nc(-c4nc5c(-c6ccccn6)nccc5[nH]4)c3c2)c1)c1ccccc1 [Compound 141, N-(5-(3-(4-(Pyridin-2-yl)-1H-imidazo[4,5-c]pyridin-2-yl)-1H-pyrazolo[3,4-b]pyridin-5-yl)pyridin-3-yl)benzamide]	> 10 µM	≥ 9.99 µM
Fc1ccc(-c2nccc3[nH]c(-c4n[nH]c5ncc(-c6cncc(CN7CCCC7)c6)cc45)nc23)cc1 [Compound 40, 3-(4-(4-Fluorophenyl)-1H-imidazo[4,5-c]pyridin-2-yl)-5-(5-(pyrrolidin-1-ylmethyl)pyridin-3-yl)-1H-pyrazolo[3,4-b]pyridine]	> 10 µM	≥ 9.99 µM
Cc1ccc(-c2nccc3[nH]c(-c4n[nH]c5ncc(-c6cncc(CN7CCCCC7)c6)cc45)nc23)s1 [Compound 353, 3-(4-(5-Methylthiophen-2-yl)-1H-imidazo[4,5-c]pyridin-2-yl)-5-(5-(piperidin-1-ylmethyl)pyridin-3-yl)-1H-pyrazolo[3,4-b]pyridine]	0.576 µM	0.009 µM
O=C(Nc1cncc(-c2cnc3[nH]nc(-c4nc5c(N6CCCCC6)nccc5[nH]4)c3c2)c1)C1CC1 [Compound 175, N-(5-(3-(4-(Piperidin-1-yl)-1H-imidazo[4,5-c]pyridin-2-yl)-1H-pyrazolo[3,4-b]pyridin-5-yl)pyridin-3-yl)cyclopropanecarboxamide]	0.413 µM	0.859 µM
CC(C)C(=O)Nc1cncc(-c2cnc3[nH]nc(-c4nc5c(-c6cccnc6)nccc5[nH]4)c3c2)c1 [Compound 87, N-(5-(3-(4-(Pyridin-3-yl)-1H-imidazo[4,5-c]pyridin-2-yl)-1H-pyrazolo[3,4-b]pyridin-5-yl)pyridin-3-yl)isobutyramide]	> 10 µM	0.009 µM
CCC(=O)Nc1cncc(-c2cnc3[nH]nc(-c4nc5c(N6CCCCC6)nccc5[nH]4)c3c2)c1 [Compound 157, N-(5-(3-(4-(Piperidin-1-yl)-1H-imidazo[4,5-c]pyridin-2-yl)-1H-pyrazolo[3,4-b]pyridin-5-yl)pyridin-3-yl)propionamide]	0.148 µM	0.432 µM
c1ccc(CNCc2cncc(-c3cnc4[nH]nc(-c5nc6c(-c7ccsc7)nccc6[nH]5)c4c3)c2)cc1 [Compound 257, N-Benzyl-1-(5-(3-(4-(thiophen-3-yl)-1H-imidazo[4,5-c]pyridin-2-yl)-1H-pyrazolo[3,4-b]pyridin-5-yl)pyridin-3-yl)methanamine]	0.309 µM	0.244 µM
Fc1cccc(-c2nccc3[nH]c(-c4n[nH]c5ncc(-c6cn[nH]c6)cc45)nc23)c1 [Compound 887, 3-(4-(3-Fluorophenyl)-1H-imidazo[4,5-c]pyridin-2-yl)-5-(1H-pyrazol-4-yl)-1H-pyrazolo[3,4-b]pyridine]	0.006 µM	0.01 µM
Cc1ccc(-c2nccc3[nH]c(-c4n[nH]c5ncc(-c6cncc(NC(=O)C(C)C)c6)cc45)nc23)s1 [Compound 347, N-(5-(3-(4-(5-Methylthiophen-2-yl)-1H-imidazo[4,5-c]pyridin-2-yl)-1H-pyrazolo[3,4-b]pyridin-5-yl)pyridin-3-yl)isobutyramide]	0.0208 µM	0.633 µM
CCCCC(=O)Nc1cncc(-c2cnc3[nH]nc(-c4nc5c(-c6cc(F)cc(NCCN(C)C)c6)nccc5[nH]4)c3c2)c1 [Compound 434, N-(5-(3-(4-(3-((2-(Dimethylamino)ethyl)amino)-5-fluorophenyl)-1H-imidazo[4,5-c]pyridin-2-yl)-1H-pyrazolo[3,4-b]pyridin-5-yl)pyridin-3-yl)pentanamide]	0.0219 µM	0.013 µM
c1ccc(CNCc2cncc(-c3cnc4[nH]nc(-c5nc6c(-c7cccnc7)nccc6[nH]5)c4c3)c2)cc1 [Compound 101, N-Benzyl-1-(5-(3-(4-(pyridin-3-yl)-1H-imidazo[4,5-c]pyridin-2-yl)-1H-pyrazolo[3,4-b]pyridin-5-yl)pyridin-3-yl)methanamine]	> 10 µM	≥ 9.99 µM
CN(C)CCOc1cncc(-c2cnc3[nH]nc(-c4nc5c(-c6cccc(F)c6)nccc5[nH]4)c3c2)c1 [Compound 895, 2-((5-(3-(4-(3-Fluorophenyl)-1H-imidazo[4,5-c]pyridin-2-yl)-1H-pyrazolo[3,4-b]pyridin-5-yl)pyridin-3-yl)oxy)-N,N-dimethylethan-1-amine]	0.343 µM	≥ 9.99 µM
CCNCc1cncc(-c2cnc3[nH]nc(-c4nc5c(-c6ccccn6)nccc5[nH]4)c3c2)c1 [Compound 136, N-((5-(3-(4-(Pyridin-2-yl)-1H-imidazo[4,5-c]pyridin-2-yl)-1H-pyrazolo[3,4-b]pyridin-5-yl)pyridin-3-yl)methyl)ethanamine]	> 10 µM	0.009 µM
Cc1cn(-c2nccc3[nH]c(-c4n[nH]c5ncc(-c6cncc(CN7CCCC7)c6)cc45)nc23)cn1 [Compound 196, 3-(4-(4-Methyl-1H-imidazol-1-yl)-1H-imidazo[4,5-c]pyridin-2-yl)-5-(5-(pyrrolidin-1-ylmethyl)pyridin-3-yl)-1H-pyrazolo[3,4-b]pyridine]	0.579 µM	≥ 9.99 µM
CN(C)Cc1cncc(-c2cnc3[nH]nc(-c4nc5c(-c6cccc(F)c6)nccc5[nH]4)c3c2)c1 [Compound 13, 1-(5-(3-(4-(3-Fluorophenyl)-1H-imidazo[4,5-c]pyridin-2-yl)-1H-pyrazolo[3,4-b]pyridin-5-yl)pyridin-3-yl)-N,N-dimethylmethanamine]	0.339 µM	0.03 µM
CC(=O)c1ccc(-c2nccc3[nH]c(-c4n[nH]c5ncc(-c6cncc(NC(=O)Cc7ccccc7)c6)cc45)nc23)s1 [Compound 374, N-(5-(3-(4-(5-Acetylthiophen-2-yl)-1H-imidazo[4,5-c]pyridin-2-yl)-1H-pyrazolo[3,4-b]pyridin-5-yl)pyridin-3-yl)-2-phenylacetamide]	> 10 µM	0.427 µM
O=C(CC1CCNCC1)Nc1cncc(-c2cnc3[nH]nc(-c4nc5c(-c6cccc(F)c6)nccc5[nH]4)c3c2)c1 [Compound 893, N-(5-(3-(4-(3-Fluorophenyl)-1H-imidazo[4,5-c]pyridin-2-yl)-1H-pyrazolo[3,4-b]pyridin-5-yl)pyridin-3-yl)-2-(piperidin-4-yl)acetamide]	0.868 µM	0.308 µM
